Experimental data: patent US9801961B2, “2-phenylimidazo[1,2-a]pyrimidines as imaging agents” (Hoffmann-La Roche Inc., priority 2013, dated 2017)

Test system: native tau aggregates
Test: TAU radioligand in vitro displacement assay ([3H]T808 autoradiography on human AD brain sections)
Assay type: binding
Settings: compound 10 nM, radioligand [3H]T808 10 nM, 50 mM Tris pH 7.4, room temperature, 30 min
Method: TAU Radioligand-In-Vitro Displacement Assay
This in vitro binding assay assesses the affinity of compounds for native tau aggregates. The compounds are co-incubated with the well-established tau specific radioligand [^3H]T808 and the compound's displacement potency of [^3H]T808 binding is determined by in vitro autoradiography using human Alzheimer's disease (AD) brain sections (FIG. 1).
AD human brains are purchased from Banner Sun Health Research Institute (Sun City, Ariz., USA). Pathological diagnosis of AD is made according to standard NIA-Reagan Institute criteria based on neuropathological data. The radioligand [^3H]T808 was synthesized in-house ([^3H]-2-[4-(2-Fluoro-ethyl)-piperidin-1-yl]-benzo[4,5]imidazo[1,2-a]pyrimidine, radiochemical purity 99.0%). As a reference cold T808 is used (2-[4-(2-Fluoro-ethyl)-piperidin-1-yl]-benzo[4,5]imidazo[1,2-a]pyrimidine). For the autoradiography FujiFilm Imaging Plates (BAS-IP TR 2025) are exposed to the sections and read with a FujiFilm IP reader (BAS-5000).
Ten μm thick human AD brain sections are generated with a cryostat (Leica CM3050) at −17° C. chamber temperature and −15° C. object temperature. Sections are transferred to Histobond+microscope slides (Marienfeld Laboratory Glasware). After drying for 3 hours at room temperature the sections are stored at −20° C. The sections are incubated with the radioligand (10 nM) and the respective cold compound (at various concentrations) in 50 mM Tris buffer, pH 7.4 at room temperature for 30 min. After washing 3×10 min at 4° C. in 50 mM Tris buffer, pH 7.4 and 3 quick dips in H2O dist. at 4° C. the sections are dried at 4° C. for 3 h. The sections are placed in a FujiFilm Cassette (BAS 2025), exposed with an Imaging Plate for five days and afterwards scanned with a resolution of […].
The signal intensity (Dens—PSL/mm2) in the region of interest (ROI) of the autoradiogram is quantified with the software MCID analysis (version 7.0, Imaging Research Inc.). The specific binding (SB) of [^3H]T808 binding in absence or in presence of a compound is calculated by subtracting the non-specific binding signal in the white matter, thus yielding SB[3H]T808 only and SBcompund. The % displacement by the various compounds is calculated as following: % displacement=100−(SBcompund/SB[3H]T808 only)*100.
In each experiment cold T808 is used as a positive internal control. Co-incubation of equimolar amounts of hot and cold T808 is expected to reduce specific binding by approximately 50%.

Row | SMILES | % displacement of [3H]T808 (10 nM) at 10 nM [%]
1 | Cc1cccc(-c2cn3ccc(N(C)CCOCCF)nc3n2)c1 [Example 68, N-[2-(2-Fluoroethoxy)ethyl]-N-methyl-2-(3-methylphenyl)imidazo[1,2-a]pyrimidin-7-amine] | 14
2 | COc1ccc(-c2cn3ccc(N4CCC4)nc3n2)cc1 [Example 69, 7-(Azetidin-1-yl)-2-(4-methoxyphenyl)imidazo[1,2-a]pyrimidine] | 40
3 | COc1ccc(-c2cn3ccc(N4CC(F)C4)nc3n2)cc1 [Example 70, 7-(3-Fluoroazetidin-1-yl)-2-(4-methoxyphenyl)imidazo[1,2-a]pyrimidine] | 25
4 | FC1CN(c2ccn3cc(-c4ccccc4)nc3n2)C1 [Example 71, 7-(3-Fluoroazetidin-1-yl)-2-phenylimidazo[1,2-a]pyrimidine] | 18
5 | Cc1cccc(-c2cn3ccc(N4CC(F)C4)nc3n2)c1 [Example 72, 7-(3-Fluoroazetidin-1-yl)-2-(3-methylphenyl)imidazo[1,2-a]pyrimidine] | 18
6 | FC1CCN(c2ccn3cc(-c4cc5ccccc5o4)nc3n2)CC1 [Example 73, 2-(1-Benzofuran-2-yl)-7-(4-fluoropiperidin-1-yl)imidazo[1,2-a]pyrimidine] | 19
7 | CN(C)c1ccc(-c2cn3ccc(N4CCOCC4)nc3n2)cc1 [Example 74, N,N-Dimethyl-4-(7-morpholin-4-ylimidazo[1,2-a]pyrimidin-2-yl)aniline] | 16
8 | FC1CCN(c2ccn3cc(-c4cc5ccccc5s4)nc3n2)CC1 [Example 75, 2-(1-Benzothiophen-2-yl)-7-(4-fluoropiperidin-1-yl)imidazo[1,2-a]pyrimidine] | 18
9 | COc1ccc(-c2cn3ccc(NC4CC4)nc3n2)cc1 [Example 76, N-Cyclopropyl-2-(4-methoxyphenyl)imidazo[1,2-a]pyrimidin-7-amine] | 43
10 | COc1ccc(-c2cn3ccc(NC(C)C)nc3n2)cc1 [Example 77, N-Isopropyl-2-(4-methoxy-phenyl)-imidazo[1,2-a]pyrimidin-7-amine] | 15
11 | COc1ccc(-c2cn3ccc(NCC(F)(F)F)nc3n2)cc1 [Example 78, 2-(4-Methoxyphenyl)-N-(2,2,2-trifluoroethyl)imidazo[1,2-a]pyrimidin-7-amine] | 8
12 | FC1CCN(c2ccn3cc(-c4nc5ccccc5s4)nc3n2)CC1 [Example 79, 2-[7-(4-Fluoropiperidin-1-yl)imidazo[1,2-a]pyrimidin-2-yl]-1,3-benzothiazole] | 12
13 | Oc1ccc(-c2cn3ccc(N4CCC4)nc3n2)cc1 [Example 80, 4-[7-(Azetidin-1-yl)imidazo[1,2-a]pyrimidin-2-yl]phenol] | 25
14 | COc1ccc(-c2cn3ccc(N4CC(OC)C4)nc3n2)cc1 [Example 81, 7-(3-Methoxyazetidin-1-yl)-2-(4-methoxyphenyl)imidazo[1,2-a]pyrimidine] | 16
15 | CNc1ccn2cc(-c3ccc(C)cc3)nc2n1 [Example 82, N-Methyl-2-(4-methylphenyl)imidazo[1,2-a]pyrimidin-7-amine] | 38
16 | CNc1ccn2cc(-c3ccc(OC)cc3)nc2n1 [Example 83, 2-(4-Methoxyphenyl)-N-methylimidazo[1,2-a]pyrimidin-7-amine] | 41
17 | CNc1ccn2cc(-c3ccc4c(c3)OCO4)nc2n1 [Example 84, 2-(1,3-Benzodioxol-5-yl)-N-methylimidazo[1,2-a]pyrimidin-7-amine] | 28
18 | CN(C)c1ccn2cc(-c3ccsc3)nc2n1 [Example 85, N,N-Dimethyl-2-thiophen-3-ylimidazo[1,2-a]pyrimidin-7-amine] | 35
19 | Cc1ccc(-c2cn3ccc(N(C)CCF)nc3n2)cc1 [Example 86, N-(2-Fluoroethyl)-N-methyl-2-(4-methylphenyl)imidazo[1,2-a]pyrimidin-7-amine] | 16

Row | SMILES | % displacement of [3H]T808 (10 nM) at 10 nM [%]
20 | CN(CCF)c1ccn2cc(-c3ccc4c(c3)OCO4)nc2n1 [Example 87, 2-(1,3-Benzodioxol-5-yl)-N-(2-fluoroethyl)-N-methylimidazo[1,2-a]pyrimidin-7-amine] | 15
21 | Cc1cccc(-c2cn3ccc(N(C)CCF)nc3n2)c1 [Example 88, N-(2-Fluoroethyl)-N-methyl-2-(3-methylphenyl)imidazo[1,2-a]pyrimidin-7-amine] | 22
22 | COc1ccc(-c2cn3ccc(N4CC(C)C4)nc3n2)cc1 [Example 89, 2-(4-Methoxyphenyl)-7-(3-methylazetidin-1-yl)imidazo[1,2-a]pyrimidine] | 20
23 | CNc1ccn2cc(-c3ccc(N(C)C)cc3)nc2n1 [Example 90, 2-[4-(Dimethylamino)phenyl]-N-methylimidazo[1,2-a]pyrimidin-7-amine] | 38
24 | CN(C)c1ccc(-c2cn3ccc(N4CCC(F)CC4)nc3n2)cc1 [Example 91, 4-[7-(4-Fluoropiperidin-1-yl)imidazo[1,2-a]pyrimidin-2-yl]-N,N-dimethylaniline] | 15
25 | CN(C)c1ccc(-c2cn3ccc(N(C)CCF)nc3n2)cc1 [Example 92, 2-[4-(Dimethylamino)phenyl]-N-(2-fluoroethyl)-N-methylimidazo[1,2-a]pyrimidin-7-amine] | 27
26 | COc1ccc(-c2cn3ccc(N(C)C4CC4)nc3n2)cc1 [Example 93, N-Cyclopropyl-2-(4-methoxyphenyl)-N-methylimidazo[1,2-a]pyrimidin-7-amine] | 42
27 | Cc1ccc(-c2cn3ccc(N4CCC4)nc3n2)cc1 [Example 94, 7-(Azetidin-1-yl)-2-(4-methylphenyl)imidazo[1,2-a]pyrimidine] | 15
28 | Cc1cccc(-c2cn3ccc(N4CCC4)nc3n2)c1 [Example 95, 7-(Azetidin-1-yl)-2-(3-methylphenyl)imidazo[1,2-a]pyrimidine] | 38
29 | CN(C)c1ccc(-c2cn3ccc(NCCF)nc3n2)cc1 [Example 96, 2-[4-(Dimethylamino)phenyl]-N-(2-fluoroethyl)imidazo[1,2-a]pyrimidin-7-amine] | 34
30 | FCOc1ccc(-c2cn3ccc(N4CCC4)nc3n2)cc1 [Example 97, 7-(Azetidin-1-yl)-2-[4-(fluoromethoxy)phenyl]imidazo[1,2-a]pyrimidine] | 30
31 | CNc1ccn2cc(-c3ccc(O)c(OC)c3)nc2n1 [Example 98, 2-Methoxy-4-[7-(methylamino)imidazo[1,2-a]pyrimidin-2-yl]phenol] | 18
32 | CNc1ccn2cc(-c3cccc(Br)c3)nc2n1 [Example 99, 2-(3-Bromophenyl)-N-methylimidazo[1,2-a]pyrimidin-7-amine] | 27
33 | FC1CCN(c2ccn3cc(-c4cnccn4)nc3n2)CC1 [Example 106, 7-(4-Fluoropiperidin-1-yl)-2-(pyrazin-2-yl)imidazo[1,2-a]pyrimidine] | 20
34 | CNc1ccn2cc(-c3ccc(CO)cc3)nc2n1 [Example 107, [4-[7-(Methylamino)imidazo[1,2-a]pyrimidin-2-yl]phenyl]methanol acetic acid adduct] | 23
35 | CNc1ccn2cc(-c3ccc(OC)c(F)c3)nc2n1 [Example 108, 2-(3-Fluoro-4-methoxyphenyl)-N-methylimidazo[1,2-a]pyrimidin-7-amine] | 36
36 | CNc1ccn2cc(-c3ccc(NC(C)=O)cc3)nc2n1 [Example 109, N-(4-(7-(Methylamino)imidazo[1,2-a]pyrimidin-2-yl)phenyl)acetamide] | 30
37 | CNc1ccn2cc(-c3ccc4c(c3)CC(=O)N4)nc2n1 [Example 110, 5-(7-(Methylamino)imidazo[1,2-a]pyrimidin-2-yl)indolin-2-one] | 18
38 | FCCOc1ccc(-c2cn3ccc(N4CCC4)nc3n2)cc1 [Example 111, 7-(Azetidin-1-yl)-2-(4-(2-fluoroethoxy)phenyl)imidazo[1,2-a]pyrimidine] | 25
